Assay results reported in PubChem BioAssay AID493092 (Sanford-Burnham Center for Chemical Genomics, 2011).
Calls of active or inactive are those of the source.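 Rule for the calls: active = averaged IC50 for reducing per-cell lipid droplet stain intensity under a set limit; inactive = the rest.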

system: AML12 mouse hepatocytes, BODIPY lipid droplet imaging; test: inhibitors of hepatocyte lipid droplet formation, SAR follow-up, imaging, AML12 mouse hepatocytes, BODIPY staining (AID 493092); conditions: cells fed 100 µM oleate overnight

Structure (SMILES)	IC50
CCOc1ccc(CCNC(=O)CSc2cc(=O)n(C)c3cc(Cl)ccc23)cc1OCC	> 32 µM (inactive)
CCN(CC)S(=O)(=O)c1ccc(C(=O)NCC(=O)NCCCc2ccccc2)cc1	> 32 µM (inactive)
CC(OC(=O)c1ccc(F)cc1)C(=O)Nc1nc(-c2cccc([N+](=O)[O-])c2)cs1 (stereo unspecified)	> 32 µM (inactive)
COc1ccccc1NS(=O)(=O)c1ccc(NN=Cc2c(C)nn(-c3ccccc3)c2N2CCCC2)c([N+](=O)[O-])c1	0.887 µM
CCOc1ccc(CCNC(=O)c2nnc(Cc3ccc(F)cc3)o2)cc1OCC	0.543 µM
CCOc1ccc(CCNC(=O)CCOc2cc(C)ccc2C)cc1OCC	0.102 µM
COc1ccc(C(=O)OCC(=O)NC(C)CCc2ccccc2)c(OC)c1 (stereo unspecified)	1.01 µM
CCOc1ccc(CN(C)C(=O)CNC(=O)Cc2cccc3ccccc23)cc1	0.168 µM
CCOc1ccccc1NC(=O)CCC(=O)Nc1ccccc1OCC	1.54 µM
COc1cc(NC(=O)c2cccs2)c(OC)cc1NC(=O)CCC(=O)Nc1cccc2ccccc12	0.26 µM
COc1cc(OC)cc(C(=O)NCC(=O)NC(C)CCc2ccccc2)c1 (stereo unspecified)	> 32 µM (inactive)
CC(Sc1nnc(Nc2ccccc2)s1)C(=O)Nc1nc(-c2ccccc2)cs1 (stereo unspecified)	3.68 µM
COc1ccc(CCNC(=O)Nc2ccccc2C#N)cc1OC	> 32 µM (inactive)
CCOc1ccc(CN(C)C(=O)CNC(=O)c2ccc(Br)o2)cc1OC	1.83 µM
CCOc1ccc(C(=O)OCC(=O)Nc2cc(C)on2)cc1OCC	0.864 µM
COc1ccc(CCNC(=O)Nc2ccccc2Cl)cc1OC	> 32 µM (inactive)
Cc1cc(N2CCOCC2)n2ncc(-c3ccc(F)cc3)c2n1	2.12 µM
CCOc1ccc(CCNC(=O)CCC(=O)N2CCOc3ccccc32)cc1OCC	0.161 µM
O=C(CNC(=O)c1cccc(Br)c1)NCCCc1ccccc1	> 32 µM (inactive)
COc1ccccc1NC(=O)C1CCN(C(=O)NCc2ccccc2)CC1	3.23 µM
CCOc1ccc(CCNC(=O)C2CC=CCC2C(=O)OC(C)C)cc1OCC (stereo unspecified)	0.267 µM
CCc1ccccc1NC(=O)CCC(=O)Nc1cc(OC)c(NC(=O)c2cccs2)cc1OC	0.538 µM
CCOc1ccc(CCNC(=O)CCC(=O)N2CCOc3ccc(C)cc32)cc1OCC	0.298 µM
Cc1nn2c(N3CCOCC3)cc(C(C)(C)C)nc2c1-c1ccc(Cl)cc1	> 32 µM (inactive)

Structure (SMILES)	IC50
O=C(NCc1ccc2c(c1)OCO2)c1cc(-c2ccccc2)c(N2CCOCC2)s1	0.412 µM
CCOc1ccc(C(C)NC(=O)Cc2ccccc2F)cc1OCC (stereo unspecified)	0.84 µM
COc1ccc(CN(C)C(=O)CNC(=O)Cc2cccc3ccccc23)c(OC)c1	2.99 µM
Cc1sc(NC(=O)Cc2ccc3c(c2)OCO3)nc1-c1ccc2c(c1)CCN2C(=O)c1ccccc1F	> 32 µM (inactive)
COc1ccc(CCNC(=O)Nc2ccc(F)cc2F)cc1OC	> 32 µM (inactive)
CC(C)Oc1ccc(C(=O)OC(C)C(=O)Nc2nc(-c3cccc([N+](=O)[O-])c3)cs2)cc1 (stereo unspecified)	0.106 µM
CCOc1ccc(CCNC(=O)Cn2nc(C)c3c(C)n(-c4ccccc4)nc3c2=O)cc1OCC	0.336 µM
Cc1nn2c(N3CCOCC3)c3c(nc2c1-c1ccccc1)CCC3	21.6 µM (inactive)
CCOc1ccc(CCNC(=O)CCc2nnc3ccc(N4CCCC4)nn23)cc1OCC	0.922 µM
Cc1ccc(C(=O)NCC(=O)NCCCc2ccccc2)cc1	> 32 µM (inactive)
CCOc1ccc(CCNC(=O)COC(=O)c2cc(OC)cc(OC)c2)cc1OCC	0.736 µM
COc1ccc(C(=O)OCC(=O)NC(C)CCc2ccccc2)cc1OC (stereo unspecified)	8.73 µM (inactive)
COc1ccc(-c2csc(NC(=O)c3ccc(OCC(=O)N4CCOCC4)c(OC)c3)n2)cc1OC	1.02 µM
CCOc1ccc(C(=O)NCC(=O)NC(C)CCc2ccccc2)cc1OCC (stereo unspecified)	0.688 µM
CCOc1ccc(CCNC(=O)Cn2cccc2C(=O)c2ccccc2)cc1OCC	0.424 µM
O=C(Nc1nc(-c2ccc(-c3ccccc3)cc2)cs1)C1CCCO1 (stereo unspecified)	1.1 µM
CCOc1ccc(CCNC(=O)c2cc3sc(Cl)cc3n2C)cc1OCC	0.0922 µM
CCOc1ccc(CCNC(=O)COC(=O)c2cc(OC)c(OC)c(OC)c2)cc1OCC	0.103 µM
CCOc1ccc(CCNC(=O)Nc2ccccc2C)cc1OCC	0.826 µM
CCOc1ccc(CCNC(=O)Cn2cccc2C(=O)c2ccccc2C)cc1OCC	0.33 µM
CCOc1ccc(CCNC(=O)CCC(=O)N2CCSc3ccccc32)cc1OCC	0.0817 µM
COc1cc(NC(=O)c2cccs2)c(OC)cc1NC(=O)CCC(=O)Nc1cccc2ncccc12	4.5 µM
COc1cccc(CN(C)C(=O)CNC(=O)Cc2cccc3ccccc23)c1OC	> 32 µM (inactive)
CCOc1ccc(CCNC(=O)CCc2nnc3ccc(N4CCCCC4)nn23)cc1OCC	0.366 µM

Structure (SMILES)	IC50
CCOc1ccc(C(=O)OCC(=O)Nc2nc(OC)cc(OC)n2)cc1OCC	0.591 µM
CC(OC(=O)c1ccc(O)cc1)C(=O)Nc1nc(-c2cccc([N+](=O)[O-])c2)cs1 (stereo unspecified)	> 32 µM (inactive)
Cc1cc(N2CCOCC2)n2nc(C(F)(F)F)c(-c3ccc(Cl)cc3)c2n1	0.113 µM
COc1ccc(-c2csc(NC(=O)c3ccc(OCC(=O)N4CCOCC4)c(OC)c3)n2)cc1	0.475 µM
COc1ccc(C(=O)OC(C)C(=O)NC(C)CCc2ccccc2)cc1[N+](=O)[O-] (stereo unspecified)	0.261 µM
CC(OC(=O)c1ccc2c(c1)OCO2)C(=O)Nc1nc(-c2cccc([N+](=O)[O-])c2)cs1 (stereo unspecified)	> 32 µM (inactive)
CCOc1ccccc1Nc1nnc(SC(C)C(=O)Nc2nc(-c3ccccc3)cs2)s1 (stereo unspecified)	1.16 µM
Cc1cc(C(=O)OC(C)C(=O)Nc2nc(-c3ccccc3)cs2)c(C)o1 (stereo unspecified)	0.428 µM
O=C(CSCC(=O)N1CCCc2ccccc21)Nc1nc(-c2ccccc2)cs1	11.8 µM (inactive)
CCOc1ccc(CCNC(=O)Nc2cccc(OC)c2)cc1OCC	0.134 µM
CCOc1ccccc1NC(=O)CCCNC(=O)Cn1cnc2sc(C)c(C)c2c1=O	8.67 µM (inactive)
CCOc1cc(CNC(=O)CCCn2c(=O)c3cccn3c3cccnc32)cc(OCC)c1OCC	0.22 µM
COc1cccc(NC(=O)CCC(=O)Nc2cc(OC)c(NC(=O)c3cccs3)cc2OC)c1	0.197 µM
CCOc1ccc(NC(=O)CCC(=O)Nc2cc(OC)c(NC(=O)c3cccs3)cc2OC)cc1	0.276 µM
CCOc1cc2c(cc1OCC)C(c1ccccc1)N(c1ccccc1)C(=O)C2 (stereo unspecified)	0.287 µM
CCCc1ccc(-c2csc(NC(=O)Cc3cccs3)n2)cc1	0.51 µM
CCOc1ccc(CCNC(=O)Nc2ccccc2)cc1OCC	0.257 µM
CCOc1ccc(CCNC(=O)CSc2cc(=O)n(CC)c3ccccc23)cc1OCC	1.26 µM
CCOC(=O)c1cc(CC)sc1NC(=O)C1CC(=O)NN1Cc1ccccc1 (stereo unspecified)	0.338 µM
CCOc1ccc(CCNC(=O)CSc2cc(=O)n(C)c3ccccc23)cc1OCC	0.496 µM
Cc1cc(N2CCOCC2)n2nc(C)c(-c3ccc(Cl)cc3)c2n1	0.158 µM
COc1ccc(Br)cc1CN(C)C(=O)CNC(=O)Cc1cccc2ccccc12	2.08 µM
COc1cc(NC(=O)c2cccs2)c(OC)cc1NC(=O)CCC(=O)Nc1c(C)cccc1C	2.2 µM
